Key:
IRAK4 = molecular target: T1, IRAK4 (Homo sapiens, UniProt Q9NWZ3); assay: Z'-LYTE assay (ThermoFisher) against IRAK4; type: biochemical; conditions: Ser/Thr 07 substrate, 60 minutes at room temperature
T1 sequence (Q9NWZ3 1-460): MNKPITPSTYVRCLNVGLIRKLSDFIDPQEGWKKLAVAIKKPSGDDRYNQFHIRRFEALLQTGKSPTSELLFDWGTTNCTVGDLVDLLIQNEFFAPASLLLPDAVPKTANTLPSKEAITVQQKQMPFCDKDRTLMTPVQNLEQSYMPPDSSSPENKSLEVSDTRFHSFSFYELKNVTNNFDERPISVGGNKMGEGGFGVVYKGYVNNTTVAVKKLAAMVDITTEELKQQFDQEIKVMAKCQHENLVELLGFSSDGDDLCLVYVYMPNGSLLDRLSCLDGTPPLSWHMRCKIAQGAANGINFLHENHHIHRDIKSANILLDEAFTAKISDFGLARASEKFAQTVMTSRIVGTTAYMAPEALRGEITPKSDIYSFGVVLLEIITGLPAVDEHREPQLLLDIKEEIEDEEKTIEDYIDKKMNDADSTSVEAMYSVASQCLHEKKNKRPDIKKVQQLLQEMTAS
Protocol: To measure the IC50 values of compounds herein against IRAK4, a Z′-LYTE assay (ThermoFisher) was used. Briefly, 2.5 μL of different concentrations of the compounds in 1% DMSO were added to 2.4 μL kinase buffer (50 mM HEPES pH 7.5, 0.01% BRIJ-35, 10 mM MgCl2, 1 mM EGTA) in each well of a 384-well plate (Corning Cat. #3676). 5 μL of 2× IRAK4/Ser/Thr 07 mixture (prepared in 50 mM HEPES pH 7.5, 0.01% BRIJ-35, 10 mM MnCl2, 2 mM DTT, and 0.02% NaN3) and 2.5 μL of 4× ATP solution (4× ATP, 50 mM HEPES, pH 7.5, 0.01% BRIJ-35, 10 mM MgCl2, 1 mM EGTA) were added to each well. The plate was shaken for 30 seconds, and then incubated at room temperature for 60 minutes. 5 μL of a 1:100000 dilution of Development Reagent A was added to each well. The plate was shaken for 30 seconds and incubated for 60 minutes at room temperature. The plate was subsequently read on a fluorescence plate reader, and the emissions ratio was calculated to determine the ratio of Ser/Thr 07 phosphorylated by the reaction. Emissions Ratio=Coumarin Emission (443 nm)/Flourescein Emission (520 nm).

IRAK1 = IRAK1 (Homo sapiens, UniProt P51617); assay: Adapta Universal Kinase Assay (ThermoFisher) against IRAK1; type: biochemical; conditions: Histone H3 (1-20) peptide substrate, 60 minutes at room temperature
Protocol: To measure the IC50 values of the compounds herein against IRAK1, the Adapta Universal Kinase Assay (ThermoFisher) was used. Briefly, 100 nL of different concentrations of the compounds in 100% DMSO were added to each well of a 384-well plate (Corning Cat. #4512). 2.4 μL of 30 mM HEPES, 2.5 μL of 4× ATP solution (in water), and 5 μL of 2× IRAK1/Histone H3 (1-20) peptide mixture (prepared in 50 mM HEPES pH 7.5, 0.01% BRIJ-35, 10 mM MgCl2, 1 mM EGTA) were added to each well. The plate was shaken for 30 seconds and centrifuged for 1 minute at 1000×g. The plate was then incubated at room temperature for 60 minutes. 5 μL of Detection Mix was added to each well. The plate was shaken for 30 seconds and centrifuged for 1 minute at 1000×g. The plate was then incubated at room temperature for 60 minutes. The plate was subsequently read on a fluorescence plate reader, and the emissions ratio was calculated to determine the ratio of ATP to ADP. Emissions Ratio=AF647 Emission (665 nm)/Europium Emission (615 nm).

Chain of IRAK1 (P51617 whole entry): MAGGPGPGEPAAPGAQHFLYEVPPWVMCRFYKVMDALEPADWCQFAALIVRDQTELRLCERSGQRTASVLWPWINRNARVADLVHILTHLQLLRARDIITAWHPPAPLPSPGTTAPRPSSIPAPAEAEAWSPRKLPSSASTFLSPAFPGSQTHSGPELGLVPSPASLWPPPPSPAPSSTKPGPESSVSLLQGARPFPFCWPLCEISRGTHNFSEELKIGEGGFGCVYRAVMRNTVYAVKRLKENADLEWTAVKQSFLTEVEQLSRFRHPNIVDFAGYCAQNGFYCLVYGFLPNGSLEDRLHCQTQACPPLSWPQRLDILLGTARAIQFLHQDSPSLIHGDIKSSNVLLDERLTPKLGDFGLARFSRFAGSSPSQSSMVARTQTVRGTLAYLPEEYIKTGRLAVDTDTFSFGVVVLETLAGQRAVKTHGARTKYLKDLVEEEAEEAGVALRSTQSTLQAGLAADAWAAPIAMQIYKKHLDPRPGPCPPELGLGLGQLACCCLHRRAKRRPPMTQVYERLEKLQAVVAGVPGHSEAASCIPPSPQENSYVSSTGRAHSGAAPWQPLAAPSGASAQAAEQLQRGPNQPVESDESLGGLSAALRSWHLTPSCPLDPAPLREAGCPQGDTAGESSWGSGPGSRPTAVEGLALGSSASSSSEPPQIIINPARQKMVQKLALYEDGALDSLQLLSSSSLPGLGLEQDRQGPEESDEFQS

| IC50 (IRAK4) [µM] | IC50 (IRAK1) [nM] | Compound |
| --- | --- | --- |
| > 10 | 209 | C=CC(=O)N1C[C@@H](c2nc(-c3ccc(NC(=O)c4cccc(-c5ccn[nH]5)n4)cc3)no2)C[C@H](C(F)(F)F)C1 [Compound 083] |
| > 10 | 30.4 | C=CC(=O)N1C[C@@H](c2nc(-c3ccc(NC(=O)c4cccc(-c5ccn[nH]5)n4)nc3)no2)C[C@H](C(F)(F)F)C1 [Compound 064] |
| 0.474 | 6.54 | C=CC(=O)N1CCC[C@H](C(=O)Nc2ccc(-c3ncc(-c4cccc(-c5ccn[nH]5)n4)[nH]3)nc2)C1 [Compound 024] |
| > 10 | 21.1 | C=CC(=O)N1CCC[C@H](c2nc(-c3ccc(NC(=O)c4cccc(-c5[nH]ncc5Cl)n4)c(F)c3)no2)C1 [Compound 089, (S)-N-(4-(5-(1-acryloylpiperidin-3-yl)-1,2,4-oxadiazol-3-yl)-2-fluorophenyl)-6-(4-chloro-1H-pyrazol-5-yl)picolinamide] |
| > 10 | 3.98 | C=CC(=O)N1CC(C(F)(F)F)C[C@H](c2nc(-c3ccc(NC(=O)c4cccc(-c5ccn[nH]5)n4)nc3)no2)C1 (stereo partly drawn) [Compound 009, N-(5-(5-((3S)-1-acryloyl-5-(trifluoromethyl)piperidin-3-yl)-1,2,4-oxadiazol-3-yl)pyridin-2-yl)-6-(1H-pyrazol-5-yl)picolinamide] |
| 3.33 | 1200 | C=CC(=O)N1CCC[C@H](C(=O)Nc2ccc(-c3cnc(-c4cccc(-c5ccn[nH]5)n4)[nH]3)cc2)C1 [Compound 070, (S)-N-(4-(2-(6-(1H-pyrazol-5-yl)pyridin-2-yl)-1H-imidazol-5-yl)phenyl)-1-acryloylpiperidine-3-carboxamide] |
| 0.244 | 6.07 | C=CC(=O)N1CCC[C@H](C(=O)Nc2ccc(-c3ncc(-c4cccc(-c5ccn[nH]5)n4)s3)nc2)C1 [Compound 023] |
| 0.353 | 2.22 | C=CC(=O)N1CCC[C@H](C(=O)Nc2ccc(Nc3nsc4ccc(-c5ccn[nH]5)nc34)cc2)C1 [Compound 025] |
| > 10 | 9.16 | C=CC(=O)N1CCC[C@H](c2nc(-c3ccc(NC(=O)c4cccc(-c5[nH]ncc5Cl)n4)cc3)no2)C1 [Compound 086, (S)-N-(4-(5-(1-acryloylpiperidin-3-yl)-1,2,4-oxadiazol-3-yl)phenyl)-6-(4-chloro-1H-pyrazol-5-yl)picolinamide] |
| > 10 | 36.6 | C=CC(=O)N1CCC[C@H](c2nc(-c3ccc(NC(=O)c4cccc(-c5ccn[nH]5)n4)cc3)no2)C1 [Compound 075] |
| > 10 | 6.62 | C=CC(=O)N1C[C@@H](c2nc(-c3ccc(NC(=O)c4cccc(-c5ccn[nH]5)n4)c(F)c3)no2)CC(F)(F)C1 [Compound 090, (S)-N-(4-(5-(1-acryloyl-5,5-difluoropiperidin-3-yl)-1,2,4-oxadiazol-3-yl)-2-fluorophenyl)-6-(1H-pyrazol-5-yl)picolinamide] |
| 0.978 | 4.46 | C=CC(=O)N1CCC[C@H](c2nc(-c3ccc(NC(=O)c4cccc(-c5ccn[nH]5)n4)c(Cl)c3)no2)C1 [Compound 079, (S)-N-(4-(5-(1-acryloylpiperidin-3-yl)-1,2,4-oxadiazol-3-yl)-2-chlorophenyl)-6-(1H-pyrazol-5-yl)picolinamide] |
| > 10 | > 10000 | C=CC(=O)N1CCC[C@H](c2nc(-c3ccc(NC(=O)c4cccc(-c5ccnn5CC5(C(F)(F)F)CC5)n4)nc3)no2)C1 [Compound 017, (S)-N-(5-(5-(1-acryloylpiperidin-3-yl)-1,2,4-oxadiazol-3-yl)pyridin-2-yl)-6-(1-((1-(trifluoromethyl)cyclopropyl)methyl)-1H-pyrazol-5-yl)picolinamide] |
| 8.22 | 609 | C=CC(=O)N1CCC[C@H](C(=O)Nc2ccc(NC(=O)c3csc(-c4ccn[nH]4)n3)cc2)C1 [Compound 071, (S)-N-(4-(1-acryloylpiperidine-3-carboxamido)phenyl)-2-(1H-pyrazol-5-yl)thiazole-4-carboxamide] |
| > 10 | 9.93 | C=CC(=O)N1CC(c2nc(-c3ccc(NC(=O)c4cccc(-c5[nH]ncc5Cl)n4)c(F)c3)no2)CC(F)(F)C1 (stereo not drawn) [Compound 092, N-(4-(5-(1-acryloyl-5,5-difluoropiperidin-3-yl)-1,2,4-oxadiazol-3-yl)-2-fluorophenyl)-6-(4-chloro-1H-pyrazol-5-yl)picolinamide] |
| 0.794 | 9 | C=CC(=O)N1CCC[C@H](c2nc(-c3ccc(NC(=O)c4cccc(-c5ccn[nH]5)n4)c(OC(F)(F)F)c3)no2)C1 [Compound 081, (S)-N-(4-(5-(1-acryloylpiperidin-3-yl)-1,2,4-oxadiazol-3-yl)-2-(trifluoromethoxy)phenyl)-6-(1H-pyrazol-5-yl)picolinamide] |
| > 10 | 3.98 | C=CC(=O)N1CC(c2nc(-c3ccc(NC(=O)c4cccc(-c5[nH]ncc5C)n4)nc3)no2)CC(F)(F)C1 (stereo not drawn) [Compound 007, N-(5-(5-(1-acryloyl-5,5-difluoropiperidin-3-yl)-1,2,4-oxadiazol-3-yl)pyridin-2-yl)-6-(4-methyl-1H-pyrazol-5-yl)picolinamide] |
| 0.376 | 5.35 | C=CC(=O)N1CCC[C@H](C(=O)Nc2ccc(-c3ncc(-c4cccc(-c5ccn[nH]5)n4)o3)nc2)C1 [Compound 022] |
